These results are taken from the SangsterLogP compilation.

By logP is commonly meant the decadic logarithm of the partition coefficient of the neutral form, usually between octanol and water. Low values mean lower lipophilicity, high ones higher lipophilicity.

`COc1ccc(Cc2cnc(N)nc2N)cc1N(C)C`: the log partition coefficient (logP) amounted to 1.68.

Regarding `CCOc1ccc(Cc2cnc(N)nc2N)cc1OC`, the logP was 1.34.

Take `COc1cc(Cc2cnc(N)nc2N)ccc1N(C)C`: the log partition coefficient (logP) amounted to 1.87.

In turn, `COc1ccc(Cc2cnc(N)nc2N)cc1C` returned a lipophilicity (logP) of 1.91.

In turn, `COc1ccc(Cc2cnc(N)nc2N)cc1Br` gave a logP of 1.88.

Turning to `CCOc1cc(Br)c(Cc2cnc(N)nc2N)cc1OC`, the log partition coefficient (logP) is 2.18.

Turning to `COc1cc(Cc2cnc(N)nc2N)ccc1Nc1ccccc1`, the logP is 3.42.

`COc1cc(Cc2cnc(N)nc2N)ccc1C(C)C` yielded a lipophilicity (logP) of 3.14.

Turning to `COc1cc(Cc2cnc(N)nc2N)ccc1Cl`, the logP amounted to 1.87.

`CCCOc1ccc(Cc2cnc(N)nc2N)cc1OC` returned a lipophilicity (logP) of 2.02.

For `COc1ccc(Cc2cnc(N)nc2N)cc1N`, the logP stood at 0.76.

Take `COc1cc(Cc2cnc(N)nc2N)c(Br)cc1Br`: the log partition coefficient (logP) amounted to 3.17.

`CCCOc1cc(Br)c(Cc2cnc(N)nc2N)cc1OC` gave a lipophilicity (logP) of 2.84.

Compound `CCOc1cc(Cc2cnc(N)nc2N)ccc1OC` showed a logP of 1.2.

Regarding `Nc1ncc(Cc2ccccc2)c(N)n1`, the logP amounted to 1.54.

With `COc1ccc(Cc2cnc(N)nc2N)cc1F`, the logP worked out at 1.08.

In turn, `COc1ccc(Cc2cnc(N)nc2N)cc1Oc1ccccc1` registered a logP of 2.12.

For `COc1ccc(Cc2cnc(N)nc2N)cc1C(C)C`, the log partition coefficient (logP) came to 2.79.

On to `CCOc1cc(Cc2cnc(N)nc2N)c(Br)cc1OC`, for which the logP turned out to be 1.86.

`COc1cc(Cc2cnc(N)nc2N)ccc1Oc1ccccc1` came in with a lipophilicity (logP) of 2.49.

The compound `COc1ccc(Cc2cnc(N)nc2N)cc1Nc1ccccc1` had a log partition coefficient (logP) of 2.88.

`CCN(CC)c1cc(Cc2cnc(N)nc2N)ccc1OC`: the log partition coefficient (logP) stood at 2.43.

Turning to `COc1ccc(Br)c(Cc2cnc(N)nc2N)c1`, the lipophilicity (logP) was 2.

On to `CCCOc1cc(Cc2cnc(N)nc2N)ccc1OC`, for which the lipophilicity (logP) was found to be 1.88.

The compound `CCOc1cc(Cc2cnc(N)nc2N)cc(OCC)c1OCC` had a lipophilicity (logP) of 2.08.

`COc1ccc(Br)cc1Cc1cnc(N)nc1N` gave a logP of 2.44.

Turning to `COc1cc(Br)c(Cc2cnc(N)nc2N)cc1OC`, the lipophilicity (logP) stood at 1.64.

Regarding `COc1ccc(Cc2cnc(N)nc2N)cc1`, the logP turned out to be 1.34.

Regarding `COc1cc(Cc2cnc(N)nc2N)ccc1OC1CCCC1`, the lipophilicity (logP) is 2.65.

`COc1ccccc1Cc1cnc(N)nc1N`: the lipophilicity (logP) amounted to 1.75.

`COc1ccc(I)cc1Cc1cnc(N)nc1N` displayed a log partition coefficient (logP) of 2.7.

Regarding `CCOc1cc(Cc2cnc(N)nc2N)c(I)c(OCC)c1OCC`, the logP was found to be 2.9.

The compound `CCOc1ccc(Cc2cnc(N)nc2N)cc1OCC` registered a logP of 1.72.

The compound `COc1ccc(Cc2cnc(N)nc2N)cc1I` yielded a logP of 2.09.

`CCOc1cc(Cc2cnc(N)nc2N)c(Br)c(OCC)c1OCC`: the lipophilicity (logP) is 1.81.

On to `COc1cc(Cc2cnc(N)nc2N)c(Br)c(OC)c1OC`, for which the logP came out at 1.66.

`CCCOc1cc(Cc2cnc(N)nc2N)c(Br)cc1OC` came in with a lipophilicity (logP) of 2.31.

Consider `CN(C)c1ccc(Cc2cnc(N)nc2N)cc1`, for which the logP stood at 1.82.

`COc1cc(Cc2cnc(N)nc2N)ccc1N` displayed a logP of 0.49.

In the case of `COc1c(Br)c(Cc2cnc(N)nc2N)c(Br)c(OC)c1OC`, the logP came to 1.73.
